The test system of data set [1] is caspase cascade, human non-transformed fibroblast cell line MRC-5. Description: Caspase cascade activation assay (Example 90), MRC-5. Format: cell-based. Conditions: ratio of net RFU of test compound to control; 24 h incubation, 0.16 to 10 μM. As to the method:
(§1) Human breast cancer cell lines T-47D and ZR-75-1, human prostate cancer cell line PC-3, human leukemia cancer cell line HL-60 and human non-transformed fibroblast cell line MRC-5 cells were grown according to media component mixtures designated by The American Type Culture Collection+10% FCS (Life Technologies, Inc.), in a 5% CO2-95% humidity incubator at 37° C. T-47D, ZR-75-1 and PC-3 cells were maintained at a cell density between 30 and 80% confluency and for HL-60 at a cell density of 0.1 to 0.6×10^6 cells/m. Cells were harvested at 600× g and resuspended at 0.65×10^6 cells/ml into appropriate media +10% FCS. […] The samples were mixed by agitation and incubated at room temperature.
(§2) The EC50 (nM) was determined by a sigmoidal dose-response calculation (Prism 2.0, GraphPad Software Inc.).

The test system of the next data set is caspase cascade. Described as above. Format: cell-based, human. Conditions: human. As to the method:
as §1, §2

The subject of data set [2] is caspase cascade, human leukemia cancer cell line HL-60. Description: Caspase cascade activation assay (Example 90), HL-60. The format is cell-based. To be noted: 24 h incubation. As to the method: as §1, §2
Data set [3] in a line: Inhibition of cell proliferation (GI50) and cell death (LC50), MRC-5. The format is cell-based. To be noted: human. As to the method:
(§3) T47D, ZR-75-1, PC-3, human prostate cancer cell line DU-145, human non-small cell lung cancer cell line A-549, human small cell lung cancer cell line SHP-77, HL-60 and MRC-5 cells were grown and harvested as in Example 90. […] The samples were mixed by agitation and incubated at 37° C. for 2-4 h in a 5% CO2-95% humidity incubator. […] This determines the possible background absorbance of the test compounds. No absorbance for gambogic acid or its analogs or derivatives was found at 490 nm. After the 2-4 h incubation, the samples were read for absorbance as above (ATest).
(§4) Baseline for GI50 (dose for 50% inhibition of cell proliferation) and LC50 (dose for 50% cell death) of initial cell numbers was determined by adding an aliquot of 90 μl of cells or 90 μl of media, respectively, to wells of a 96-well microtiter plate containing 10 μl of a 10% DMSO in RPMI-1640 media solution. […] The samples were mixed by agitation and incubated at 37° C. for 2-4 h in a 5% CO2-95% humidity incubator. Absorbance was read as above, (AT=0) defining absorbance for initial cell number used as baseline in GI50 determinations and (Amin) defining absorbance for media alone used as baseline in LC50 determinations.
(§5) GI50 (dose for 50% inhibition of cell proliferation)
(§6) LC50 (dose for 50% cell death)
(§7) 50=100×[(ATest−Amin)/(AT=0−Amin)]

For data set [4], the system named is caspase cascade, human breast cancer cell line T-47D. Briefly: Caspase cascade activation assay (Example 90), T-47D. The format is cell-based. To be noted: 24 h incubation; for T-47D Ratio (caspase activity): ratio of net RFU of test compound to control, 0.16 to 10 μM. As to the method:
as §1, §2

In data set [5] the test system is caspase cascade, human breast cancer cell line ZR-75-1. Briefly: Caspase cascade activation assay (Example 90), ZR-75-1. The format is cell-based. To be noted: 24 h incubation; for ZR-75-1 Ratio (caspase activity): ratio of net RFU of test compound to control, 0.16 to 10 μM. As to the method:
as §1, §2

The subject of data set [6] is caspase cascade, human prostate cancer cell line PC-3. Briefly: Caspase cascade activation assay (Example 90), PC-3. The format is cell-based. Conditions: for EC50: Homo sapiens, read-out: PC-3 EC50 (caspase activation potency); for PC-3 Ratio (caspase activity): ratio of net RFU of test compound to control, 0.16 to 10 μM. As to the method:
as §1, §2

The subject of another data set is MRC-5 cells. Description: Inhibition of cell proliferation (GI50) and cell death (LC50), MRC-5. To be noted: Homo sapiens, MRC5; MRC-5, 48 h; read-out: GI50 (dose for 50% inhibition of cell proliferation). Format: cell-based. As to the method: as §3, §4, §5, §6, §7
Data set [7] has as its system human non-small cell lung cancer cell line A-549. Description: Inhibition of cell proliferation (GI50) and cell death (LC50), A-549. Conditions: Homo sapiens. The format is cell-based. As to the method:
as §3, §4, §5, §6, §7

For the next data set, the system named is PC-3 cells. Briefly: Inhibition of cell proliferation (GI50) and cell death (LC50), PC-3. Format: cell-based. To be noted: Homo sapiens, PC-3, 48 h. As to the method:
as §3, §4, §5, §6, §7

Data set [8] has as its system human small cell lung cancer cell line SHP-77. Briefly: Inhibition of cell proliferation (GI50) and cell death (LC50), SHP-77. The format is cell-based. Conditions: Homo sapiens. As to the method: as §3, §4, §5, §6, §7
Another data set concerns HL-60 cells. Description: Inhibition of cell proliferation (GI50) and cell death (LC50), HL-60. Conditions: Homo sapiens, HL-60, 48 h. The format is cell-based. As to the method: as §3, §4, §5, §6, §7
A further data set has as its system ZR-75-1 cells. Briefly: Inhibition of cell proliferation (GI50) and cell death (LC50), ZR-75-1. To be noted: Homo sapiens, ZR-75-1, 48 h. The format is cell-based. As to the method:
as §3, §4, §5, §6, §7

A further data set concerns T-47D cells. Briefly: Inhibition of cell proliferation (GI50) and cell death (LC50), T-47D. To be noted: Homo sapiens, T47D, 48 h. Format: cell-based. As to the method:
as §3, §4, §5, §6, §7

The subject of data set [9] is human prostate cancer cell line DU-145. Description: Inhibition of cell proliferation (GI50) and cell death (LC50), DU-145. Conditions: Homo sapiens, DU-145, 48 h. The format is cell-based. As to the method:
as §3, §4, §5, §6, §7

Data set [10] has as its system poly(ADP)ribose polymerase (PARP) cleavage, T47D cells. Description: PARP cleavage western blot, T47D cells. The format is cell-based, human. Conditions: 1 μM staurosporine, 2 h and 4 h (FIG. 5C). As to the method: (§8) Cleavage of the enzyme poly(ADP)ribose polymerase (PARP) by caspase-3 and related proteases is considered to be one of the molecular hallmarks of caspase-mediated apoptosis. Therefore, the ability of gambogic acid to induce PARP cleavage in four different human tumor cell lines (Jurkat cells, HL-60 cells, T47D cells and PC3 cells) was determined.
(§9) Cells were cultured in complete growth medium containing 10% FBS and treated with gambogic acid at concentrations of 2.5 μM or 5 μM for 2 to 4 h. Control cultures were treated with a drug vehicle (DMSO), or the well-characterized apoptosis inducer, staurosporine. At the end of the apoptosis induction period, the cells were harvested, washed once with PBS, quick-frozen on dry ice, and stored at −80° C. The cells were then lysed in a standard immunoblotting lysis buffer and samples of the lysates were electrophoresed on 4% to 20% gradient polyacrylamide gels. The proteins in the gels were then transferred to PVDF membranes and probed with a commercially-available rabbit polyclonal antibody to PARP.
A general note: Immunoblotting shows a protein as a band on a membrane.

Data set [11] relates to poly(ADP)ribose polymerase (PARP) cleavage, PC3 cells. Description: PARP cleavage western blot, PC3 cells. Format: cell-based, human. To be noted: 1 μM staurosporine, 2 h and 4 h (FIG. 5D). As to the method:
as §8, §9

The mark [12] stands for this setting: read-out: LC50 (dose for 50% cell death).
[13] abbreviates: read-out: GI50 (dose for 50% inhibition of cell proliferation).

Where two headings read alike, the source gives them in different places.

By EC50 is commonly meant the concentration needed to bring the measured effect to its halfway point.

`COC(=O)/C(C)=C\CC12OC(C)(C)C3CC(C=C4C(=O)c5c(O)c6c(c(CC=C(C)C)c5OC431)OC(C)(CCC=C(C)C)C=C6)C2=O` (stereo not drawn) [Example 4, Methyl Gambogate]: the “MRC-5 Ratio (caspase activity)” value in [1] is given as 27.8. Also, the half-maximal effective concentration (EC50) at 24 h with caspase cascade (24 h incubation, sigmoidal dose-response, read-out: MRC-5 EC50 (caspase activation potency)) stood at 501 nM. The “HL-60 Ratio (caspase activity)” value in [2] (ratio of net RFU of test compound to control, 0.16 to 10 μM) came to 7.7. Besides, the CC50 at 48 h in data set [3] (MRC-5, 48 h, read-out: LC50 (dose for 50% cell death)) was 500 nM. Also, the “T-47D Ratio (caspase activity)” value in data set [4] was determined as 16.8. Moreover, in data set [5], the “ZR-75-1 Ratio (caspase activity)” value came out at 14.9. Besides, the EC50 in data set [6] (24 h) is 1330 nM. Besides, the “PC-3 Ratio (caspase activity)” value in data set [6] (24 h incubation) was determined as 3.9.
In the data set with caspase cascade, `CC(C)=CCCC1(C)C=Cc2c(O)c3c(c(CC=C(C)C)c2O1)OC12C(=CC4CC1C(C)(C)OC2(C/C=C(/C)C(=O)N1CCCCC1)C4=O)C3=O` (stereo not drawn) [Example 5, Gambogyl Piperidine] registered an EC50 at 24 h of 631 nM. In addition, the EC50 in data set [2] (Homo sapiens, HL-60, sigmoidal dose-response, read-out: HL-60 EC50 (caspase activation potency)) was determined as 200 nM; in data set [4] (Homo sapiens, T47D, sigmoidal dose-response, read-out: T-47D EC50 (caspase activation potency)), 210 nM; in data set [5] (Homo sapiens, ZR-75-1, sigmoidal dose-response, read-out: ZR-75-1 EC50 (caspase activation potency)), 783 nM; in data set [6] (24 h incubation, sigmoidal dose-response), 900 nM. In data set [3], this compound returned a CC50 at 48 h of 800 nM. The GI50 with MRC-5 cells came to 800 nM; in data set [7] (A549, A-549, 48 h, read-out: GI50 (dose for 50% inhibition of cell proliferation)), 800 nM; with PC-3 cells (setting [13]) it was 500 nM; in [8] (SHP77, SHP-77, 48 h, read-out: GI50 (dose for 50% inhibition of cell proliferation)), 500 nM; in the data set with HL-60 cells (setting [13]), 100 nM; in the data set with ZR-75-1 cells (setting [13]), 300 nM. The GI50 was determined as 50 nM in the data set on T-47D cells (T-47D, read-out: GI50 (dose for 50% inhibition of cell proliferation)) and 500 nM in [9] (setting [13]). Further, the CC50 was 5000 nM in [7] (A549, 48 h, read-out: LC50 (dose for 50% cell death)); 500 nM in the data set on PC-3 cells (setting [12]); 500 nM in [8] (SHP77, 48 h, read-out: LC50 (dose for 50% cell death)); 800 nM with HL-60 cells (setting [12]); 500 nM in the data set on ZR-75-1 cells (setting [12]); 50 nM in the data set with T-47D cells (setting [12]). The CC50 in [9] (setting [12]) stood at 500 nM.
For `COc1c2c(c(CC=C(C)C)c3c1C(=O)C1=CC4CC5C(C)(C)OC(C/C=C(/C)C(=O)N6CCCCC6)(C4=O)C15O3)OC(C)(CCC=C(C)C)C=C2` (stereo not drawn) [Example 7, 6-Methoxy-gambogyl Piperidine], in data set [1], the “MRC-5 Ratio (caspase activity)” value worked out at 9.4. This compound also had a concentration for a half-maximal effect (EC50) at 24 h in the data set on caspase cascade of 1200 nM. The “T-47D Ratio (caspase activity)” value in data set [4] is listed as 14.4. The “ZR-75-1 Ratio (caspase activity)” value in data set [5] was 13.4. Further, the “PC-3 Ratio (caspase activity)” value in [6] (24 h incubation) is on record as 2.3.
Regarding `CN[C@@H]1C[C@H]2O[C@@](C)([C@@H]1OC)n1c3ccccc3c3c4c(c5c6ccccc6n2c5c31)C(=O)NC4` [staurosporine, reference compound], the PARP cleavage result in data set [10] and in data set [11] was “no cleavage of PARP” throughout.

Source of the values: patent US6613762B2, “Gambogic acid, analogs and derivatives as activators of caspases and inducers of apoptosis” (Cytovia, Inc., priority 1999, dated 2003).
